Measured values reported in patent publication US12728116B2, “Methods of treating multiple sclerosis” (Vanda Pharmaceuticals Inc., priority 2021, dated 2026).

Assays:
[1] = test system: adult subjects with relapsing MS; experiment: 12-lead ECG heart rate and first-dose effects on Day 1; assay type: in vivo, human; settings: for Mean heart rate change compared to pre-dose at 2-hours post dose / Subjects with asymptomatic post-dose HR≤40 bpm: Day 1; for Mean heart rate change compared to pre-dose at 2-hours post dose: 12-lead ECG, Safety Set; for Subjects with asymptomatic post-dose HR≤40 bpm: all with pre-treatment HR <55 bpm
Protocol: As per up-titration regimen, the dose of ponesimod on Day 1 is 2 mg.

[2] = test system: adult subjects with relapsing MS; experiment: FSIQ-RMS weekly symptoms score, change from baseline to Week 108 (fatigue); assay type: in vivo, human; settings: for FSIQ-RMS change: Improved (<−6.3), patients / FSIQ-RMS change: Stable (−6.3 < x < +6.3), patients / FSIQ-RMS change: Stable or Improved, patients / FSIQ-RMS change: Worsened (≥6.3), patients / FSIQ-RMS-S total score change: Improved (<−6.3), patients / FSIQ-RMS-S total score change: Stable (−6.3 < x < +6.3), patients / FSIQ-RMS-S total score change: Stable or Improved, patients / FSIQ-RMS-S total score change: Worsened (≥6.3), patients: Week 108; for Mean change from baseline to Week 108 in FSIQ-RMS weekly symptoms score (MMRM): ponesimod 20 mg, teriflunomide 14 mg, full analysis set, increase = worsening
Protocol: In some embodiments, the patient-reported outcome questionnaire is the symptom domain of the FSIQ-RMS. The FSIQ-RMS symptom domain (FSIQ-RMS-S) consists of seven items assessing fatigue-related symptoms with a recall period of 24 hours measured on an 11-point numeric rating scale; the standardized symptom domain score ranges from 0 to 100 with a higher score indicating greater fatigue. This domain (i.e., section 1 of the questionnaire) is completed on 7 consecutive days.
As used herein, the term “patient level” refers to individual or within patient level of change. As used herein, “clinically meaningful” refers to the practical importance of a treatment effect and whether it has a real genuine, palpable, noticeable effect on symptoms and/or daily life. When interpreting data from a Patient Reported Outcome (PRO), for example, it is helpful to define a level of change on the PRO score over a predetermined time period that should be interpreted as a treatment benefit. Various terms are used for this level of change, including meaningful change threshold (MCT). This threshold can be used to conduct a responder analysis where an individual patient is a responder if the level of change on the PRO score for that patient exceeds the MCT. The proportion of responders between treatment groups can be compared to evaluate treatment effect. For example, in certain embodiments disclosed herein, there is an analysis of the percentage of responders in the ponesimod and teriflunomide treatment groups using an MCT of −6.3 on the FSIQ-RMS weekly symptom score. The percentage of subjects in the stable or improved category is also calculated. […] Accordingly, evaluation of within patient changes using MCT and associated responder analyses are used to provide additional interpretation to a p-value derived from a statistical test
For the MS symptoms domain, the FSIQ-RMS asks about a patient's fatigue-related symptoms of relapsing MS over the past 24 hours while doing routine daily activities (e.g., housework, yard work, shopping, working, etc.) for Items 1-6 or while at rest (e.g., reading a book, watching TV, etc.) for Item 7. Patients are asked to select a response on a scale of 0 to 10 that best describes their experience and are asked to not skip any questions, with no answers being right or wrong. • Item 1—In the past 24 hours, while doing routine daily activities, how physically tired did you feel? See FIG. 31. • Item 2—In the past 24 hours, while doing routine daily activities, how mentally tired did you feel? See FIG. 32. • Item 3—In the past 24 hours, while doing routine daily activities, how physical weak did you feel? See FIG. 33. • Item 4—In the past 24 hours, how would you rate your energy while doing routine daily activities? See FIG. 34. • Item 5—In the past 24 hours, while doing routine daily activities, how worn out did you feel? See FIG. 35. • Item 6—In the past 24 hours, while doing routine daily activities, how sleepy did you feel? See FIG. 36. • Item 7—In the past 24 hours, how worn out did you feel while at rest? MS-Related Impacts—13 Items
Secondary efficacy variables and testing strategy: Four secondary efficacy endpoints were analyzed as per the statistical testing strategy outlined in FIG. 1. • Change from baseline to Week 108 in fatigue-related symptoms as measured by the symptoms domain of the FSIQ-RMS patient-reported outcome [Fatigue] • Cumulative number of combined unique active lesions from baseline to Week 108 on brain MRI [CUALs] • Time to first 12-week confirmed disability accumulation (CDA) from baseline to EOS on Expanded Disability Status Scale (EDSS) [12-week CDA] • Time to first 24-week CDA from baseline to EOS on EDSS [24-week CDA] […]

[3] = Baseline EDSS <3.5 (title: ≤3.5)
[4] = baseline fatigue below the median
[5] = no prior DMT treatment within about two years
[6] = no prior DMT treatment within about two years, listed as ponesimod

CCC/N=C1\S/C(=C\c2ccc(OC[C@H](O)CO)c(Cl)c2)C(=O)N1c1ccccc1C [Ponesimod, (R)-5-[3-chloro-4-(2,3-dihydroxy-propoxy)-benz[Z]ylidene]-2-([Z]-propylimino)-3-o-tolyl-thiazolidin-4-one]
2nd or higher degree AV block ([1]; Day 1, first dose): No 2nd or higher degree AV block was observed
Subjects meeting discharge criteria at 4 hours post-dose ([1]; Day 1, first dose): ca. 99%
ECG HR effect: time of nadir post-dose ([1]; Day 1, ponesimod 2 mg): 2 h
Mean heart rate change compared to pre-dose at 2-hours post dose [1]: −8.7 bpm
Subjects with asymptomatic post-dose HR≤40 bpm [1]: 3
MS-fatigue (FSIQ-RMS) mean difference, change from baseline to week 108, ponesimod vs teriflunomide ([2]; EDSS≤3 subgroup): −4.31
FSIQ-RMS change: Improved (<−6.3), patients [2, 3]: 30.6%
FSIQ-RMS change: Stable (−6.3 < x < +6.3), patients [2, 3]: 40.8%
FSIQ-RMS change: Stable or Improved, patients [2, 3]: 71.4%
FSIQ-RMS change: Worsened (≥6.3), patients [2, 3]: 28.6%
FSIQ-RMS-S total score change: Improved (<−6.3), patients ([2]; Full Analysis Set): 30.5%
FSIQ-RMS-S total score change: Stable (−6.3 < x < +6.3), patients ([2]; Full Analysis Set): 38.4%
FSIQ-RMS-S total score change: Stable or Improved, patients ([2]; Full Analysis Set): 68.9%
FSIQ-RMS-S total score change: Worsened (≥6.3), patients ([2]; Full Analysis Set): 31.1%
FSIQ-RMS change: Improved (<−6.3), patients [2, 4]: 19.1%
FSIQ-RMS change: Stable (−6.3 < x < +6.3), patients [2, 4]: 45.2%
FSIQ-RMS change: Stable or Improved, patients [2, 4]: 64.4%
FSIQ-RMS change: Worsened (≥6.3), patients [2, 4]: 35.6%
FSIQ-RMS change: Stable or Improved, patients ([2]; baseline fatigue below the median, listed as ponesimod): ~65%
FSIQ-RMS change: Improved (<−6.3), patients ([2]; no Gd+ T1 lesions at baseline): 30.0%
FSIQ-RMS change: Stable (−6.3 < x < +6.3), patients ([2]; no Gd+ T1 lesions at baseline): 37.4%
FSIQ-RMS change: Stable or Improved, patients ([2]; no Gd+ T1 lesions at baseline): 67.5%
FSIQ-RMS change: Worsened (≥6.3), patients ([2]; no Gd+ T1 lesions at baseline): 32.5%
FSIQ-RMS change: Stable or Improved, patients ([2]; no Gd+ T1 lesions at baseline, listed as ponesimod): about 68%
FSIQ-RMS change: Improved (<−6.3), patients [2, 5]: 31.4%
FSIQ-RMS change: Stable (−6.3 < x < +6.3), patients [2, 5]: 44.0%
FSIQ-RMS change: Stable or Improved, patients [2, 5]: 75.4%
FSIQ-RMS change: Worsened (≥6.3), patients [2, 5]: 24.6%
FSIQ-RMS change: Improved (<−6.3), patients [2, 6]: 31.4%
FSIQ-RMS change: Stable or Improved, patients [2, 6]: about 75%
Mean difference in FSIQ-RMS change from baseline to Week 108, ponesimod vs teriflunomide ([2]; ponesimod 20 mg vs teriflunomide 14 mg, Full Analysis Set): −3.57
Mean change from baseline to Week 108 in FSIQ-RMS weekly symptoms score (MMRM) [2]: −0.01

C/C(O)=C(\C#N)C(=O)Nc1ccc(C(F)(F)F)cc1 [Teriflunomide, reference compound]
Mean heart rate change compared to pre-dose at 2-hours post dose [1]: −1.7 bpm
Subjects with asymptomatic post-dose HR≤40 bpm [1]: none
FSIQ-RMS change: Improved (<−6.3), patients [2, 3]: 27.9%
FSIQ-RMS change: Stable (−6.3 < x < +6.3), patients [2, 3]: 34.2%
FSIQ-RMS change: Stable or Improved, patients [2, 3]: 62.1%
FSIQ-RMS change: Worsened (≥6.3), patients [2, 3]: 37.9%
FSIQ-RMS-S total score change: Improved (<−6.3), patients ([2]; Full Analysis Set): 29.9%
FSIQ-RMS-S total score change: Stable (−6.3 < x < +6.3), patients ([2]; Full Analysis Set): 32.6%
FSIQ-RMS-S total score change: Stable or Improved, patients ([2]; Full Analysis Set): 62.5%
FSIQ-RMS-S total score change: Worsened (≥6.3), patients ([2]; Full Analysis Set): 37.5%
FSIQ-RMS change: Improved (<−6.3), patients [2, 4]: 20.9%
FSIQ-RMS change: Stable (−6.3 < x < +6.3), patients [2, 4]: 33.7%
FSIQ-RMS change: Stable or Improved, patients [2, 4]: 54.6%
FSIQ-RMS change: Worsened (≥6.3), patients [2, 4]: 45.4%
FSIQ-RMS change: Stable or Improved, patients ([2]; baseline fatigue below the median, listed as teriflunomide): about 55%
FSIQ-RMS change: Improved (<−6.3), patients ([2]; no Gd+ T1 lesions at baseline): 25.8%
FSIQ-RMS change: Stable (−6.3 < x < +6.3), patients ([2]; no Gd+ T1 lesions at baseline): 31.2%
FSIQ-RMS change: Stable or Improved, patients ([2]; no Gd+ T1 lesions at baseline): 57.0%
FSIQ-RMS change: Worsened (≥6.3), patients ([2]; no Gd+ T1 lesions at baseline): 43.0%
FSIQ-RMS change: Stable or Improved, patients ([2]; no Gd+ T1 lesions at baseline, listed as teriflunomide): about 57%
FSIQ-RMS change: Improved (<−6.3), patients [2, 5]: 26.2%
FSIQ-RMS change: Stable (−6.3 < x < +6.3), patients [2, 5]: 36.9%
FSIQ-RMS change: Stable or Improved, patients [2, 5]: 63.1%
FSIQ-RMS change: Worsened (≥6.3), patients [2, 5]: 36.9%
Mean change from baseline to Week 108 in FSIQ-RMS weekly symptoms score (MMRM) [2]: 3.56
